# Assay results taken from patent US9101539B2, “Intranasal pharmaceutical compositions with improved pharmacokinetics” (SHIN NIPPON BIOMEDICAL LABORATORIES, LTD., priority 2009, dated 2015).
# What was measured:
# in vivo = details: rhesus monkey, inhaled or intranasal
# Method: Blood was obtained at 10, 20, 30, 60, 120, 240, and 480 minutes post-administration from the monkeys administered the solid dosage form. For the monkeys treated with the nasal spray, blood was obtained 5, 10, 20, 30, 60, 120, 240, and 480 minutes post-treatment.
# Blood was obtained at 5, 10, 20, 30, 60, 120, and 240 minutes post-administration.
# Administered dose was 6 mg/animal. […] Blood was obtained at 5, 10, 20, 30, 60, 120, and 240 minutes post-administration.
# (§1) Administered dose was 6 mg/animal. […] Administered dose was 6 mg/animal. Blood was obtained at 5, 10, 20, 30, 60, 120, and 240 minutes post-administration.
# Total dose was 6 mg/animal. Blood was obtained at 5, 10, 20, 30, 60, 120, and 240 minutes post-administration.
# as §1, §1
# (§2) Administered dose was 6 mg/animal. […] Administered dose was 6 mg/animal. […] Blood was obtained at 5, 10, 20, 30, 60, 120, and 240 minutes post-administration.
# as §2
# [1] = Zolmitriptan pharmacokinetics (plasma concentration versus time) in rhesus monkeys; format: in vivo; details: 5 mg/animal; for Tmax: intranasal dry powder, n=2
# Method: The pharmacokinetics of a zolmitriptan liquid nasal spray and a dry powder formulation were studied in two groups of rhesus monkeys. One group, n=2, was administered a nasal spray of zolmitriptan (Zomig®, 5 mg/100 μl in an aqueous buffered solution). A second, n=2, was administered intranasal zolmitriptan freebase with a particle size of <15 μm. The administered dose was 5 mg/animal.
# One group, n=2, was administered intranasal zolmitriptan freebase with a particle size of <15 μm. Administered dose was 5 mg/animal. […] Administered dose was 5 mg/animal.
# [2] = intranasal dry powder <15 μm, versus Zomig nasal spray
compound,measurement,setting,value
CNS(=O)(=O)Cc1ccc2[nH]cc(CCN(C)C)c2c1 [sumatriptan succinate],Cmax,"in vivo; 6 mg, Cmax",696 ng/mL
same,Tmax,"in vivo; 6 mg, Tmax",7.5 min
CNS(=O)(=O)Cc1ccc2[nH]cc(CCN(C)C)c2c1 [sumatriptan freebase],Cmax among the formulations tested that contained freebase,in vivo,highest
CN(C)CCc1c[nH]c2ccc(C[C@H]3COC(=O)N3)cc12 [zolmitriptan freebase],BA compared with the liquid spray,[1]; [2],significantly increased
same,Cmax compared with the liquid spray,[1]; [2],significantly increased
same,Tmax,[1]; 50% of the particles <15 μm and 50% 38 μm-100 μm,20 min
same,Tmax,[1]; particle size <15 μm,10 min
